# According to patent publication US20260183408A1, “POLYPEPTIDE AND USE THEREOF” (SHENZHEN CHENYANG BIOLOGICAL TECHNOLOGY CO., LTD, priority 2022, published 2026):
# Key:
# Format in all cases: in vivo, mouse
# [1] = test system: CRS mice; assay: Open field test (OFT, total distance); conditions: single intraperitoneal 3 nmol/g, 1 hour after treatment (FIG. 12)
# Protocol: (§1) The C57BL/6J mice were horizontally fixed for 6 h (from 10 to 16 o'clock) in a first acrylic restraint which is cylindrical and flat-bottomed (25×90 mm) every day for 2 weeks. The filter had several slots which could adapt to the size of each mouse to firmly restrain the mouse and inhibit body movements of the limb and trunk without causing pain. Immediately after being restrained, the mice were sent back to their cages. Unrestrained mice (control) stayed in their cages when no CRS procedure was performed. Neither the control mice nor the CRS mice could have access to food and water during the CRS exposure.
# (§2) The C57BL/6J mice were subjected to various stress including restraint (for 4 h), cage tilting (for 45 times, with 12 h each time), light-dark cycle reversal (once), flash (for 12 h), and dirty cage (for 2 times, with 14 h each time). The protocol lasted 6 weeks. Control mice were not subjected to corresponding stress.
# (§3) The mice were treated with TAT or TAT-D2R-KL (single intraperitoneal administration at 3 nmol/g in both cases). […]
# OFT (for testing the total distance): The mice were acclimated to the experimental environment for 1 h and placed in a chamber of 45 cm×45 cm×30 cm. A video was recorded for 5 min to observe the motional activity of the mice. The total distance covered by the mice was measured, analyzed and expressed in millimeters.
# [2] = test system: CRS mice; assay: Tail suspension test (TST); conditions: single intraperitoneal 3 nmol/g, 1 hour after treatment, compared with TAT-treated mice (FIG. 12)
# Protocol: as §1, §2, §3
# TST: The mice were suspended with a tape to a position 40 cm above the floor within a rectangular compartment (length 55 cm× width 20 cm× depth 11.5 cm). A video was recorded for a total of 5 minutes, and the immobility time was recorded. […]
# [3] = test system: SPS mice; assay: Corticosterone, cortisol, DA and 5-HT levels in hippocampus and cortex
substance,measurement,setting,value
TAT-D2R-KL: C-terminus of the KL (K226-L240) region of D2R fused to the transduction domain of HIV-1 Tat protein (SEQ ID NO: 5),overall movement ability (total distance),[1],had no effect
same,immobility time (TST),[2],significantly reduced
same,level of cortisol,[3]; hippocampus and cortex of SPS mice (FIG. 9),did not significantly change
same,level of DA,[3]; hippocampus and cortex of SPS mice (FIG. 10),did not significantly change
same,elevated corticosterone level,[3]; hippocampus of SPS mice (FIG. 8),significantly reduced
same,upregulated 5-HT,[3]; hippocampus of SPS mice (FIG. 11),did not reduce
